The target in one data set is T1, BACE1 enzyme (Homo sapiens, UniProt P56817).
T1 construct: The HEK293-9B.A1 cell line, which overexpresses the BACE1 enzyme, was derived from HEK293 cells; endogenous in cells; washed membrane pellet / cell homogenate
The experiment in a line: Radioligand displacement assay with a radiolabeled BACE inhibitor on HEK293-9B.A1 cell homogenate. To be noted: displacement of 1 nM tritiated radioligand, HEK293-9B.A1 homogenate, pH 5.0, 1.5 hr at 25° C.; read-out: Activity Rating (Activity based on IC50 values). Type of data set: binding. The source says: There are a number of methods by which inhibitors of the BACE enzyme can be identified experimentally. The enzyme can be obtained from membrane samples from natural tissues or cultured cells or can be expressed recombinantly in a host cell by well known methods of molecular biology. The whole enzyme or a portion thereof can be expressed, for example, in bacterial, insect or mammalian cells to obtain a catalytically active enzyme species. The enzymatic activity and/or ligand binding capability of the enzyme can be assessed within these membrane samples, or the enzyme can be purified to varying extents. As an illustrative example, the nucleic acid sequence encoding the pro and catalytic domains of human BACE can be appended on the 5′ end with an untranslated and signal sequence from the gene for acetylcholinesterase, and on the 3′ end with a sequence encoding a poly-histidine tag. This cDNA can then be expressed in Drosophila melanogaster S2 cells in which the signal and pro sequences of the transcribed/translated protein are removed by cellular proteases and the catalytic domain, appended by a C-terminal poly-histidine tag, is secreted out into the cellular medium. The enzyme can then be purified from the culture medium by nickel affinity chromatography by methods well known to those trained in the art [Mallender, W. et al., “Characterization of recombinant, soluble beta-secretase from an insect cell expression system.” Mol. Pharmacol. 2001, 59: 619-626]. Similar strategies for expressing and purifying various forms of BACE in bacterial, mammalian and other cell types would be known to one skilled in the art. A preferred method for determining the potency of a test compound in binding to the BACE enzyme is by moitoring the displacement of a suitable radioligand.
Radioligand displacement assays with a radiolabeled BACE inhibitor (WO 2004 013098, compound 3, where the methoxy group is substituted for C(3H)3) were carried out using standard methods (Keen, M. (1999) in Receptor Binding Techniques (Walker, J. M. ed) p. 106 Humana Press, Totowa, N.J.). The HEK293-9B.A1 cell line, which overexpresses the BACE1 enzyme, was derived from HEK293 cells (Simmons, N. L. (1990) A cultured human renal epithelioid cell line responsive to vasoactive intestinal peptide. Exp. Physiol. 75:309-19.) by RAGE™ (Harrington, J. J. et al. (2001) Creation of genome-wide protein expression libraries using random activation of gene expression. Nat. Biotechnol. 19:440-5.; U.S. Pat. Nos. 6,410,266 and 6,361,972). T225 flask cultures of HEK293-9B.A1 were grown to 80% confluency in DMEM supplemented with 2 mM L-glutamine, 10 μg/ml penicillin, 10 μg/ml streptomycin, 3 μg/ml puromycin, 100 nM methotrexate, and 10% fetal bovine serum (Invitrogen, Carlsbad, Calif.), harvested, and resuspended at 2×10^8 cells per 10 ml of lysis buffer consisting of 50 mM HEPES pH 7.0 containing a protease inhibitor cocktail of AEBSF 104 μM, aprotinin 80 nM, leupeptin 2 μM, bestatin 4 μM, pepstatin A 1.5 μM, and E-64 1.4 μM (0.1% of protease inhibitor cocktail P8340, Sigma-Aldrich, St. Louis, Mo.) at 4° C. The resuspended cells were homogenized using a Polytron (Brinkman, Westbury, N.Y.) at setting 6 for 10 sec., then centrifuged at 48,000×g for 10 min. The resulting pellet was washed by repeating the resuspension, homogenization and centrifugation steps. The final pellet was resuspended in buffer at 4° C. to yield a total protein concentration of 5 mg/ml, then aliquots were frozen in liquid nitrogen for further storage at −70° C. Immediately before carrying out a binding assay, an aliquot of cell homogenate was thawed and diluted to a concentration of 100 μg/ml in assay buffer consisting of 50 mM HEPES pH 5.0 and 0.1% CHAPSO. […]

For data set [1] the following is noted: rcm bond, 15-membered ring.

Read-outs that look alike come from different tables or passages of the source. A value given as a limit tells only on which side of the number the result lay.

T1 sequence (P56817 46-501): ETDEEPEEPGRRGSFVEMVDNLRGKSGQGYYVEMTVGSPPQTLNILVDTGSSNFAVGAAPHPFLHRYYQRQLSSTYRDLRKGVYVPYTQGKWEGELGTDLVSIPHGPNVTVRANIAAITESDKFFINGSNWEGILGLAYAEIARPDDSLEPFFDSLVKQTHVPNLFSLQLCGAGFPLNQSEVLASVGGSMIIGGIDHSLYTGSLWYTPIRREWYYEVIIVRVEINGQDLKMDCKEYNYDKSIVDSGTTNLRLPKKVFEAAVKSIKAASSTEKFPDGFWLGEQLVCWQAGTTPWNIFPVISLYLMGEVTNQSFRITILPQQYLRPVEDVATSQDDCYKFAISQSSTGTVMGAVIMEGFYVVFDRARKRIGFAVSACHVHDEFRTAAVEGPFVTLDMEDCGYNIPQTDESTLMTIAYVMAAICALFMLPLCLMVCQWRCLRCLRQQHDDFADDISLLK

On to `CCC(C)[C@@]1(NC(C)=O)CCN([C@H]2CC=CCO[C@@H]3C[C@H](NC[C@@H](O)[C@H](Cc4ccccc4)NC2=O)c2cc(OC)ccc23)C1=O` (stereo partly drawn) [Example 6, N—[(S)-1-((1S,4R,5S,8S,14R)-5-Benzyl-4-hydroxy-18-methoxy-7-oxo-13-oxa-2,6-diaza-tricyclo[12.6.1.0^15,20]henicosa-10,15(20),16,18-tetraen-8-yl)-3-sec-butyl-2-oxo-pyrrolidin-3-yl]-acetamide], for which the IC50 at BACE1 enzyme was below 10 nM. The ring closure, yield after HPLC in data set [1] (from C=CCO[C@@H]1C[C@H](NC[C@@H](O)[C@H](Cc2ccccc2)NC(=O)[C@H](CC=C)N2CC[C@](NC(C)=O)(C(C)CC)C2=O)c2cc(OC)ccc21, Hoveyda-Grubbs II (10 mol%), dichloroethane, 50.0 °C, 16.0 h) is 50%.

For `CCCC[C@H]1CCN([C@H]2CC=CCO[C@@H]3C[C@H](NC[C@@H](O)[C@H](Cc4cc(F)cc(F)c4)NC2=O)c2cc(OC)ccc23)C1=O` [Example 4, (1S,4R,5S,8S,14R)-8-((S)-3-Butyl-2-oxo-pyrrolidin-1-yl)-5-(3,5-difluoro-benzyl)-4-hydroxy-18-methoxy-13-oxa-2,6-diaza-tricyclo[12.6.1.0^15,20]henicosa-10,15(20),16,18-tetraen-7-one], at BACE1 enzyme, the IC50 is below 10 nM. For the same compound, in data set [1] (from C=CCO[C@@H]1C[C@H](NC[C@@H](O)[C@H](Cc2cc(F)cc(F)c2)NC(=O)[C@H](CC=C)N2CC[C@H](CCCC)C2=O)c2cc(OC)ccc21, Hoveyda-Grubbs II (10 mol%), CH2Cl2, 25.0 °C, 72.0 h), the ring closure, yield after HPLC amounted to 46%.

`COc1ccc2c(c1)[C@@H]1C[C@H]2OCC=CC[C@H](N2CC[C@H](CC(C)C)C2=O)C(=O)N[C@@H](Cc2ccccc2)[C@H](O)CN1` [Example 7, (1S,4R,5S,8S,14R)-5-Benzyl-4-hydroxy-8-((S)-3-isobutyl-2-oxo-pyrrolidin-1-yl)-18-methoxy-13-oxa-2,6-diaza-tricyclo[12.6.1.0^15,20]henicosa-10,15(20),16,18-tetraen-7-one]: the IC50 on BACE1 enzyme was below 10 nM. The compound also returned a ring closure, yield after HPLC in data set [1] (from C=CCO[C@@H]1C[C@H](NC[C@@H](O)[C@H](Cc2ccccc2)NC(=O)[C@H](CC=C)N2CC[C@H](CC(C)C)C2=O)c2cc(OC)ccc21, Hoveyda-Grubbs II (10 mol%), CH2Cl2, 8.9 mM, 25.0 °C, 16.0 h) of 75%.

Turning to `COc1ccc2c(c1)C1CC2OCCCCC(N2CCCC2=O)C(=O)N[C@@H](Cc2ccccc2)[C@H](O)CN1` (stereo partly drawn) [Example 2, (4R,5S)-5-Benzyl-4-hydroxy-18-methoxy-8-(2-oxo-pyrrolidin-1-yl)-13-oxa-2,6-diaza-tricyclo[12.6.1.0^15,20]henicosa-15(20),16,18-trien-7-one], the IC50 at BACE1 enzyme was above 1000 nM.

Take `COc1ccc2c(c1)[C@@H]1C[C@H]2OCC=CC[C@H](N2CCCC2=O)C(=O)N[C@@H](Cc2cc(F)cc(F)c2)[C@H](O)CN1` [Example 3, (1S,4R,5S,8S,14R)-5-(3,5-Difluoro-benzyl)-4-hydroxy-18-methoxy-8-(2-oxo-pyrrolidin-1-yl)-13-oxa-2,6-diaza-tricyclo[12.6.1.0^15,20]henicosa-10,15(20),16,18-tetraen-7-one]: the IC50 at BACE1 enzyme fell in the range of 10 to 1000 nM. For the same compound, in data set [1] (from C=CCO[C@@H]1C[C@H](NC[C@@H](O)[C@H](Cc2cc(F)cc(F)c2)NC(=O)[C@H](CC=C)N2CCCC2=O)c2cc(OC)ccc21, Hoveyda-Grubbs II (20 mol%), CH2Cl2, 7.15 mM, 25.0 °C, 16.0 h), the ring closure, yield after HPLC was 70%.

`COc1ccc2c(c1)C1CC2OCC=CCC(N2CCCC2=O)C(=O)N[C@@H](Cc2ccccc2)[C@H](O)CN1` (stereo partly drawn) [Example 1, (4R,5S)-5-Benzyl-4-hydroxy-18-methoxy-8-(2-oxo-pyrrolidin-1-yl)-13-oxa-2,6-diaza-tricyclo[12.6.1.0^15,20]henicosa-10,15(20),16,18-tetraen-7-one]: on BACE1 enzyme, the IC50 is above 1000 nM. For the same compound, in data set [1] (from C=CCOC1CC(NC[C@@H](O)[C@H](Cc2ccccc2)NC(=O)C(CC=C)N2CCCC2=O)c2cc(OC)ccc21, Grubbs II (20 mol%)/TsOH.H2O, CH2Cl2, 8.75 mM, 25.0 °C, 18.0 h), the ring closure, yield after HPLC was 97%.

With `CCCC[C@H]1CCN([C@H]2CCCCO[C@@H]3C[C@H](NC[C@@H](O)[C@H](Cc4cc(F)cc(F)c4)NC2=O)c2cc(OC)ccc23)C1=O` [Example 5, (1S,4R,5S,8S,14R)-8-((S)-3-Butyl-2-oxo-pyrrolidin-1-yl)-5-(3,5-difluoro-benzyl)-4-hydroxy-18-methoxy-13-oxa-2,6-diaza-tricyclo[12.6.1.0^15,20]henicosa-15(20),16,18-trien-7-one], the IC50 on BACE1 enzyme was below 10 nM.

The values are drawn from patent US7338974B2, “Macrocyclic diaminopropanes as beta-secretase inhibitors” (Bristol-Myers Squibb Company, priority 2005, dated 2008).
